ChEMBL document CHEMBL4699521, “Design and synthesis of 4-Aminoquinoline-isoindoline-dione-isoniazid triads as potential anti-mycobacterials” (Bioorg Med Chem Lett, 2020)
pIC50: −log10 of the molar value. Converted amounts (≈) assume the structure as drawn.

How the values were obtained:
Vero [1] = experiment: Cytotoxicity against African green monkey Vero cells; type: cell-based; conditions: Chlorocebus sabaeus
[2] = Selectivity index, ratio of IC50 for African green monkey Vero cells to MIC99 for Mycobacterium tuberculosis mc2 6230; type: toxicity; conditions: read-out: Selectivity Index
[3] = molecular target: T1, Enoyl-[acyl-carrier-protein] reductase [NADH] (Mycobacterium tuberculosis) (UniProt P9WGR1); experiment: Inhibition of Mycobacterium tuberculosis mc2 6230 InhA assessed as antimycobacterial activity by measuring minimum inhibitory concentration required to inhibit 99% of bacterial growth
T1 sequence (whole entry): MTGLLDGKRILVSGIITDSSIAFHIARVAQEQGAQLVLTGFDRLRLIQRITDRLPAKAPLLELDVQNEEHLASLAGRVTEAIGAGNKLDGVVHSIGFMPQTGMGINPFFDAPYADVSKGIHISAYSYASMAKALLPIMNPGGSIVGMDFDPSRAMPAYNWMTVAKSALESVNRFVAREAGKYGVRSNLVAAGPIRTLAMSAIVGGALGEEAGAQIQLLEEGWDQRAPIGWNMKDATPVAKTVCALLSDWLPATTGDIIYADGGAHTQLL

[4] = test system: Mycobacterium tuberculosis; experiment: Antimycobacterial activity against Mycobacterium tuberculosis H37Rv assessed as reduction in bacterial cell growth; type: functional
[5] = test system: Mycobacterium tuberculosis; experiment: Antitubercular activity against Mycobacterium tuberculosis mc2 6230 assessed as minimum inhibitory concentration required to inhibit 99% of bacterial growth; type: functional
[6] = test system: Mycobacterium tuberculosis; experiment: Antitubercular activity against Mycobacterium tuberculosis mc2 6230 assessed as minimum inhibitory concentration required to inhibit 99% of bacterial growth measured after 2 to 3 weeks; type: functional; conditions: time weeks 2-3
[7] = test system: Mycobacterium tuberculosis; experiment: Antitubercular activity against Mycobacterium tuberculosis H37Rv assessed as reduction in bacterial cell growth measured after 7 days by alamar blue assay; type: functional; conditions: 168 h, time 7 day
Vero [8] = experiment: Cytotoxicity against African green monkey Vero cells assessed as reduction in cell viability measured after 24 hrs by resazurin assay; type: cell-based; conditions: Chlorocebus sabaeus
[9] = test system: Mycobacterium tuberculosis; experiment: Antitubercular activity against Mycobacterium tuberculosis mc2 6230 assessed as minimum inhibitory concentration required to inhibit 99% of bacterial growth incubated for 7 days by two-fold serial dilution method; type: functional; conditions: mc2 6230, 168 h, time 7 day

Structure (SMILES)	pIC50 (Vero [1])	selectivity ratio [2]	MIC99 [3]	also measured
O=C(O)c1ccc2c(c1)C(=O)N(CCCCCCCCNc1ccnc3cc(Cl)ccc13)C2=O	< 3.68	> 0.5	417 µM (≈ 200 µg/mL)	–
O=C(NCCCCNc1ccnc2cc(Cl)ccc12)c1ccc2c(c1)C(=O)N(NC(=O)c1ccncc1)C2=O	4.83	0.6	23 µM (≈ 12.5 µg/mL)	–
O=C(NN1C(=O)c2c(F)c(F)c(F)c(F)c2C1=O)c1ccncc1	–	–	–	MIC [4]: 3.4 µM (≈ 1.15 µg/mL)
O=C1c2ccccc2C(=O)N1CCCCCCCCNc1ccnc2cc(Cl)ccc12	4.94	–	–	MIC [5]: 13.5 µM (≈ 5.89 µg/mL)
O=C(O)c1ccc2c(c1)C(=O)N(CCCNc1ccnc3cc(Cl)ccc13)C2=O	3.62	0.5	489 µM (≈ 200 µg/mL)	–
O=C1C(=O)N(CCCN2CCN(c3ccnc4cc(Cl)ccc34)CC2)c2ccc(F)cc21	–	–	–	MIC [6]: < 10.1 µM
O=C(NNC(=O)c1ccc2c(c1)C(=O)N(CCCCCCCCNc1ccnc3cc(Cl)ccc13)C2=O)c1ccncc1	3.89	25	5.1 µM (≈ 3.06 µg/mL)	–
O=C(NNC(=O)c1ccc2c(c1)C(=O)N(CCCNc1ccnc3cc(Cl)ccc13)C2=O)c1ccncc1	3.92	2.5	47.3 µM (≈ 25 µg/mL)	–
O=C(NNC(=O)c1ccc2c(c1)C(=O)N(CCCCCCNc1ccnc3cc(Cl)ccc13)C2=O)c1ccncc1	3.89	5.8	21.9 µM (≈ 12.5 µg/mL)	–
O=C(Cn1cc(CN2C(=O)c3ccccc3C2=O)nn1)Nc1ccc(Br)cc1	–	–	–	MIC [7]: 28.4 µM (≈ 12.5 µg/mL)
O=C(CN1C(=O)c2ccccc2C1=O)NNC(=O)c1ccncc1	< 3.51	> 1	308 µM (≈ 100 µg/mL)	–
O=C(O)c1ccc2c(c1)C(=O)N(CCCCNc1ccnc3cc(Cl)ccc13)C2=O	4.40	0.16	236 µM (≈ 100 µg/mL)	–
O=C(CN1C(=O)c2ccc(F)cc2C1=O)NCCNc1ccnc2cc(Cl)ccc12	–	–	–	pIC50 (Vero [8]): < 3.63; MIC [9]: 14.6 µM (≈ 6.23 µg/mL)
O=C(NN1C(=O)c2ccc(C(=O)OCCNc3ccnc4cc(Cl)ccc34)cc2C1=O)c1ccncc1	< 3.71	> 0.5	> 388 µM	–
O=C(NCCCCCCCCNc1ccnc2cc(Cl)ccc12)c1ccc2c(c1)C(=O)N(NC(=O)c1ccncc1)C2=O	< 3.78	> 32.7	5.1 µM (≈ 3.06 µg/mL)	–
O=C(O)c1ccc2c(c1)C(=O)N(CCNc1ccnc3cc(Cl)ccc13)C2=O	< 3.60	> 0.5	> 506 µM	–
O=C(NCCCCCCNc1ccnc2cc(Cl)ccc12)c1ccc2c(c1)C(=O)N(NC(=O)c1ccncc1)C2=O	4.48	3	11 µM (≈ 6.28 µg/mL)	–
O=C(NCCNc1ccnc2cc(Cl)ccc12)c1ccc2c(c1)C(=O)N(NC(=O)c1ccncc1)C2=O	4.19	10.6	6 µM (≈ 3.09 µg/mL)	–
O=C(NN1C(=O)c2cccc3cccc(c23)C1=O)c1ccncc1	–	–	–	MIC [5]: > 631 µM
Cc1ccc(N2C(=O)C(NC(=O)CCNc3ccnc4cc(Cl)ccc34)[C@@H]2/C=C/c2ccccc2)cc1 (some centres not stated)	–	–	–	MIC [6]: 9.8 µM (≈ 5.01 µg/mL)
O=C(NN1C(=O)c2ccc(C(=O)OCCCNc3ccnc4cc(Cl)ccc34)cc2C1=O)c1ccncc1	< 3.71	> 16	11.9 µM (≈ 6.31 µg/mL)	–
NNC(=O)c1ccncc1	–	–	0.07 µM (≈ 0.0096 µg/mL)	–
O=C(NN1C(=O)c2ccc(N3CCN(c4ccnc5cc(Cl)ccc45)CC3)cc2C1=O)c1ccncc1	< 3.71	> 32.5	6 µM (≈ 3.08 µg/mL)	–
O=C(NNC(=O)c1ccc2c(c1)C(=O)N(CCCCNc1ccnc3cc(Cl)ccc13)C2=O)c1ccncc1	4.78	0.7	23 µM (≈ 12.5 µg/mL)	–
O=C(NNC(=O)c1ccc(N2C(=O)c3ccccc3C2=O)cc1)c1ccncc1	< 3.59	> 2	129 µM (≈ 50 µg/mL)	–
O=C(NNC(=O)c1ccc2c(c1)C(=O)N(CCNc1ccnc3cc(Cl)ccc13)C2=O)c1ccncc1	< 3.71	> 0.5	389 µM (≈ 200 µg/mL)	–
O=C(O)c1ccc2c(c1)C(=O)N(CCCCCCNc1ccnc3cc(Cl)ccc13)C2=O	4.61	0.11	222 µM (≈ 100 µg/mL)	–
O=C1c2ccc(N3CCCCC3)cc2C(=O)N1CCCCNc1ccnc2cc(Cl)ccc12	–	–	–	pIC50 (Vero [8]): < 3.66; MIC [9]: 13.5 µM (≈ 6.25 µg/mL)
O=C(NCCCNc1ccnc2cc(Cl)ccc12)c1ccc2c(c1)C(=O)N(NC(=O)c1ccncc1)C2=O	3.79	27	5.8 µM (≈ 3.07 µg/mL)	–
